Data: article PMC3057995, “Potent Anti-Tumor Effect Generated by a Novel Human Papillomavirus (HPV) Antagonist Peptide Reactivating the pRb/E2F Pathway” (PLoS ONE, 2011)

Assays:
[1] = system: HPV16 E7 protein; conditions: peptides 0.08 µM to 800 µM vs HPV16E7 mAb; mean ± SE, three independent experiments
Method: HPV16E7 mAb alone, incubated with the coated E7 protein, gave the benchmark absorption value. Absorbance values and inhibitory ratio were collected and calculated as outlined in Materials and Methods.
The specificity and affinity of the positive clones and synthetic peptides were determined by competitive ELISA. 400 ng/well HPV16 E7 protein was coated overnight in microtiter wells at 4°C. The positive clones or peptides at different concentrations mixed with HPV16E7 mAb were incubated with the coated E7 protein in microtiter wells for 3 h. The mixture at the same concentration of the library phage and HPV16E7 mAb was set as negative control. […] HPV16E7 mAb alone at the same concentration, incubated with the coated E7 protein, gave benchmark absorption. The inhibitory ratio was calculated by the following formula: Inhibitory ratio = 100%−(A450 of mixture well/A450 of mAb alone well)×100%.

[2] = system: CaSki cells; assay: Clonogenic assay, CaSki; assay type: cell-based; conditions: 14 days
Method: (§1) Cells were seeded in DMEM at 1×10^3 cells/well density in 12-well plates and allowed to attach to the substrate overnight. Thereafter, cells were treated with 0 µM, 16 µM, 32 µM, 80 µM, and 160 µM peptide in DMEM, and the medium was changed every three days. The plates were observed daily for colony formation. After 8 (for HeLa cells) or 14 (for SiHa and CaSki cells) days of treatment, the cultures were washed three times with PBS and stained with crystal violet in ethanol for 15 min. The colonies were then counted and photographed with the Alphalmager® EP image acquisition system (Alpha Innotech, Santa Clara, CA, USA).

[3] = system: COS7; assay: MTT cell viability assay, Cos7; assay type: cell-based, African green monkey; conditions: Cos7, HPV-negative; data not shown
Excerpt: (§2) HPV16-positive SiHa and CaSki cervical carcinoma cells were supplied by China Center for Type Culture Collection (CCTCC). The following cell lines used in this project were from our laboratory: HPV18-positive HeLa cervical carcinoma cells, CNE nasopharyngeal carcinoma cells, HaCat human keratinocyte cells, COS7 (African green monkey SV40-transformed kidney fibroblast cell line), 293T (human kidney epithelial cells), and NIH/3T3 mouse embryonic fibroblast cells. All cells were maintained in a humidified atmosphere of 5% CO2, Dulbecco's modified Eagle's medium (DMEM, pH 7.2), supplemented with 10% fetal calf serum (FCS).
(§3) Cell viability was determined with an MTT assay. Briefly, the cells were seeded into 96-well plates at a density of 4–5×10^3 cells/well. The cells were allowed to recover for 24 h before the medium was replaced with DMEM supplemented with peptides at different concentrations. The solvent of the peptides was set as the control. The peptide-supplemented medium was replaced daily and the respective concentrations were maintained. The cells were subjected to an MTT cell proliferation assay at different time points. The plates were incubated at 37°C for 3 h with the addition of 20 µl/well MTT (5 mg/ml). Untransformed MTT in the solution was removed by aspiration. […] The optical density of the formazan solutions was measured by microplate reader at 540 nm.

[4] = system: SiHa tumor xenografts; assay: H/E staining and BrdU-incorporation of tumor tissues; assay type: in vivo, mouse (Balb/C-nu/nu); conditions: 400 µg/mouse group
Method: Three or two mice bearing tumor of each group were prelabeled with intra-peritoneal injection of BrdU (100 mg/kg, Sigma-Aldrich, Inc., Aaint Louis, MO, USA) 15 hours before sacrificed. Tumor specimens were then prepared as formalin-fixed, paraffin-embedded sections for hematoxylin-eosin staining, BrdU and pRb immunohistochemical staining as previously described, [57]. In brief, immunostaining was performed on formalin-fixed, paraffin-embedded sections using the anti-pRb monoclonal and anti- BrdU monoclonal antibodies, respectively. Before the application of the primary antibodies, an antigen retrieval technique was performed. […] The antibodies were detected by means of the Strept Avidin-Biotin Complex (SABC) method (Wuhan Boster Biological Technology, Ltd., Wuhan, P.R. China.) according to the manufacturer's instructions. Stained slides were examined under a Nikon ECLIPSE TE2000-U microscope (Nikon Corporation, Tokyo, Japan) and images were collected and analyzed with Pixera Penguin 600CL DiRactor™ (Pixera Corporation, Los Gatos, CA, USA). BrdU or pRb-positive cells were counted in each section. The total cell number was determined by nuclear staining with hematoxylin. At least 1000 total cells for each case were counted.

[5] = system: HPV18 E7; assay: Competitive ELISA with HPV18 E7 anti-serum; assay type: binding; conditions: peptides 0.08 µM to 800 µM vs HPV18 E7 anti-serum; mean ± SE, three independent experiments
[6] = system: SiHa cells; assay: Clonogenic assay, SiHa; assay type: cell-based; conditions: 14 days
Method: as §1

[7] = system: SiHa cells; assay: MTT cell viability assay, SiHa; assay type: cell-based; conditions: HPV16-positive, 80 µM in Fig. 3C, medium replaced daily, A540, mean ± SE, at least two independent runs in sextuplicate
Method: Cell viability was determined with an MTT assay. Briefly, the cells were seeded into 96-well plates at a density of 4–5×10^3 cells/well. The cells were allowed to recover for 24 h before the medium was replaced with DMEM supplemented with peptides at different concentrations. The solvent of the peptides was set as the control. The peptide-supplemented medium was replaced daily and the respective concentrations were maintained. The cells were subjected to an MTT cell proliferation assay at different time points. The plates were incubated at 37°C for 3 h with the addition of 20 µl/well MTT (5 mg/ml). Untransformed MTT in the solution was removed by aspiration. The formazan product was dissolved in DMSO, and plates were shaken vigorously at room temperature for 10–15 min to ensure complete solubilization. The optical density of the formazan solutions was measured by microplate reader at 540 nm.

[8] = system: CNE nasopharyngeal carcinoma cells; assay: MTT cell viability assay, CNE; assay type: cell-based; conditions: HPV-negative, data not shown
Excerpt: as §2, §3

[9] = system: CaSki cells; assay: qRT-PCR, CaSki; assay type: cell-based; conditions: 80 µM
Method: Total RNA was extracted from the cultured cells using TRIzol reagent (Invitrogen, Carlsbad, CA,USA) according to the manufacturer's instructions. qRT-PCR was used to confirm the expression levels of mRNAs. Reverse transcription and qPCR were performed according to the protocol of Reverse Transcriptase System™ and SYBR® premix Ex Taq™ (Perfect Real Time) (TaKaRa, Dalian, P.R. China) on the ABI 7300 Real Time PCR System (Applied Biosystems, Foster City, CA, USA) supplied with analytical software. β-actin mRNA levels were used for normalization. Each sample was determined in triplicate. The results represent means ± SE from three experiment runs.

[10] = system: HPV16 E7; assay: Immunohistochemistry of tumor tissues, HPV16 E7; assay type: in vivo, mouse (Balb/C-nu/nu); conditions: 400 µg/mouse group vs control
[11] = vs 0 µM group, three independent experiments

Question: What does the source list for “SACPKGLDWCGG (C&C bridged by disulfide bonds) (disulfide) [Pep-7]”?
Answer: binding to HPV16 E7 [1]: bound to HPV16 E7 with high affinity compared with the control peptide N-pep; colony formation ([2]; 16-160 µM): inhibited; concentration up to which colony number difference vs control became significant (p<0.02) [2, 11]: 32 µM; cell proliferation (MTT) [3]: negligible effect; H/E staining and BrdU uptake of tumor tissue [4]: repressed tumor growth; binding to HPV18 E7 [5]: did not bind to HPV18 E7; colony formation ([6]; 16-160 µM): inhibited; concentration up to which colony number difference vs control became significant (p<0.02) [6, 11]: 32 µM; cell proliferation (MTT) [7]: repressed significantly by Pep-7 in a dose- and time-dependent manner; cell proliferation (MTT) [8]: negligible effect; cyclins A, D1 and E1 RNA expression [9]: significantly reduced; pRb and HPV16E7 RNA levels [9]: not affected; HPV16E7 protein level in tumor tissue [10]: decreased
